Results reported in US8962637B2, “Bicyclic compounds and their uses as dual c-SRC/JAK inhibitors” (Debiopharm S.A., priority 2010, dated 2015).

Columns and labels:
JAK1 = JAK1 (Homo sapiens (Human), UniProt P23458); assay: JAK1 kinase inhibition; format: biochemical; settings: for inhibition at 0.1 µM: read-out: JAK1 % inhibition at 100 nM; for inhibition at 1 µM: read-out: JAK1 % inhibition at 1 μM
A431 cancer cell line = assay: Inhibition of cell growth in A431; format: cell-based; settings: Homo sapiens, A-431
Mda-Mb-231 cells = assay: Cell viability assay (XTT assay), Mda-Mb-231; format: cell-based; settings: Homo sapiens, 72 hrs
Description: Mda-Mb-231 or A549 cells were seeded onto a 96-well micro plate. Next day compounds were added to cells and incubated for 72 hrs. Compound treatment was done in triplicates. After 72 hrs cell culture media was aspirated from the wells and XTT working solution was added and plates were incubated for 2-5 hrs. The absorbance of the samples was measured with a spectrophotometer at a wavelength of 465 nm. EC50 values were calculated using Graphpad Prism. Tumor cell lines used in the examples of the present invention were procured from ATCC. Description of the cell lines is included in the following table: […]

c-Src = c-Src (Homo sapiens (Human), UniProt P12931); assay: TR-FRET c-Src kinase assay; format: biochemical; settings: ATP 50 μM; for inhibition at 0.1 µM: read-out: c-SRC % inhibition at 100 nM, 100 nM; for inhibition at 1 µM: read-out: c-SRC % inhibition at 1 μM
Description: (§1) Compounds were screened in the TR-FRET assay for JAK2 and c-Src kinase inhibition. Ultra light poly GT (Perkin Elmer) was used as the substrate for JAK2 and c-Src with the ATP concentration of 10 μM and 50 μM, respectively. […] The dose-response curve fitting was done using GraphPad Prism software.

JAK2 = JAK2 (Homo sapiens (Human), UniProt O60674); assay: TR-FRET JAK2 kinase assay; format: biochemical; settings: ATP 10 μM; for inhibition at 0.1 µM: read-out: JAK2 % inhibition at 100 nM, 100 nM; for inhibition at 1 µM: read-out: JAK2 % inhibition at 1 μM
Description: as §1

pStat3 = assay: In-Cell-Western blot assay for pStat3 (ICW) in A431 cells; format: cell-based; settings: Homo sapiens, A-431, 2 hrs, read-out: pSTAT3 inhibition
Description: A431 cells were seeded onto a 96-well micro plate. After overnight serum starvation cells were incubated with compounds for 2 hrs. Cells were fixed with 4% paraformaldehyde in PBS and then permeabilized with 0.1% Triton X-100 in PBS (PBST). Cells were blocked with 5% BSA in PBST for 2 hrs, followed by overnight incubation with phospho Stat3 antibody. Cells were washed and incubated with europium-labeled anti-rabbit secondary antibody for 2 hrs. After washing enhancement solution was added to the wells. The micro-plate was read on the Victor instrument at the Europium setting. The Hoechst readings were used to normalize for cell number. IC50 values were calculated with the normalized europium values using Graphpad Prism.

Chain of c-Src (P12931 whole entry, looked up): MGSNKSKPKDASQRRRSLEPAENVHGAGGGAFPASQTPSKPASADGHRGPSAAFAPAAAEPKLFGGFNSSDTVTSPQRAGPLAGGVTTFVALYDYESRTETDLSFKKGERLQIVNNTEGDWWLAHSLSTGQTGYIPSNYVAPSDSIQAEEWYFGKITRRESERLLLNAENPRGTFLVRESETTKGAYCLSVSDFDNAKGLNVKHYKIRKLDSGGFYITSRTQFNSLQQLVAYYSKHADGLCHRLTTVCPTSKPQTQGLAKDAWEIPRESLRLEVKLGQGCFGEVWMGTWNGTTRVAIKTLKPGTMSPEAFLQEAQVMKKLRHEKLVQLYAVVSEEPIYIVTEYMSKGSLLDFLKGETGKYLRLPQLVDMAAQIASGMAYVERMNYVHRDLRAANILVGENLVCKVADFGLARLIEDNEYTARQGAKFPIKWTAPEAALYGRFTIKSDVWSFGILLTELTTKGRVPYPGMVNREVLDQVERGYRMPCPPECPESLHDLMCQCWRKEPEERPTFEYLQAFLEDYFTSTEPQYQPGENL
Chain of JAK1 (P23458 whole entry): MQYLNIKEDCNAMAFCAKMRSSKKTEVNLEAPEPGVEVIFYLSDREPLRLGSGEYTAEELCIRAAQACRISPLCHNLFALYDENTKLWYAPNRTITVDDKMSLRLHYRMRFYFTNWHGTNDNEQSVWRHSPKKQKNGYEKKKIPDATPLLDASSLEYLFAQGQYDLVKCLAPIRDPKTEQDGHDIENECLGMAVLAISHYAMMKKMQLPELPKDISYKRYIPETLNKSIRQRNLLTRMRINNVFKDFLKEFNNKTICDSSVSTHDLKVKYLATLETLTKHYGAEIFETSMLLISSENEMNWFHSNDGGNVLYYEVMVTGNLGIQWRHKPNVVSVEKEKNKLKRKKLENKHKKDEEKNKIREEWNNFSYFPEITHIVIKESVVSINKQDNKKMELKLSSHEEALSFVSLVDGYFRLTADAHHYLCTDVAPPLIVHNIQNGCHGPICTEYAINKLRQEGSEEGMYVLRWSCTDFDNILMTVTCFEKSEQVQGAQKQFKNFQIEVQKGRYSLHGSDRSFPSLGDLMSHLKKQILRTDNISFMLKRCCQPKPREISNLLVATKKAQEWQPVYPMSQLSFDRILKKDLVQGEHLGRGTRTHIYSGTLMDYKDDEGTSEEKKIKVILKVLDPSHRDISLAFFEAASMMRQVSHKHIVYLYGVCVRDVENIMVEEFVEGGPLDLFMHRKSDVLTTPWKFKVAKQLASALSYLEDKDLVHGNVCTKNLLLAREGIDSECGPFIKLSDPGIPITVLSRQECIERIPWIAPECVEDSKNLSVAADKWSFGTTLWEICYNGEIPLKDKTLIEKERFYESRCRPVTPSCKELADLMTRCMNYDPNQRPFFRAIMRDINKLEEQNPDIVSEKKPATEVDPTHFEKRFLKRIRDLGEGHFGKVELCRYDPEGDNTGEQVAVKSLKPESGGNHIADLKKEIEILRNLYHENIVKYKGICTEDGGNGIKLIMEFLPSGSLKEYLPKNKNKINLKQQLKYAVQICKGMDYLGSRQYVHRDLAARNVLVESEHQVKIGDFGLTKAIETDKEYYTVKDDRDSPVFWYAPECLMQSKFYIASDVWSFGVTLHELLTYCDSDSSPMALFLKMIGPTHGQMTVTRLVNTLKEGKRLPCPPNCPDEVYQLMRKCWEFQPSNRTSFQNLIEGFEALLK
Chain of JAK2 (O60674 whole entry): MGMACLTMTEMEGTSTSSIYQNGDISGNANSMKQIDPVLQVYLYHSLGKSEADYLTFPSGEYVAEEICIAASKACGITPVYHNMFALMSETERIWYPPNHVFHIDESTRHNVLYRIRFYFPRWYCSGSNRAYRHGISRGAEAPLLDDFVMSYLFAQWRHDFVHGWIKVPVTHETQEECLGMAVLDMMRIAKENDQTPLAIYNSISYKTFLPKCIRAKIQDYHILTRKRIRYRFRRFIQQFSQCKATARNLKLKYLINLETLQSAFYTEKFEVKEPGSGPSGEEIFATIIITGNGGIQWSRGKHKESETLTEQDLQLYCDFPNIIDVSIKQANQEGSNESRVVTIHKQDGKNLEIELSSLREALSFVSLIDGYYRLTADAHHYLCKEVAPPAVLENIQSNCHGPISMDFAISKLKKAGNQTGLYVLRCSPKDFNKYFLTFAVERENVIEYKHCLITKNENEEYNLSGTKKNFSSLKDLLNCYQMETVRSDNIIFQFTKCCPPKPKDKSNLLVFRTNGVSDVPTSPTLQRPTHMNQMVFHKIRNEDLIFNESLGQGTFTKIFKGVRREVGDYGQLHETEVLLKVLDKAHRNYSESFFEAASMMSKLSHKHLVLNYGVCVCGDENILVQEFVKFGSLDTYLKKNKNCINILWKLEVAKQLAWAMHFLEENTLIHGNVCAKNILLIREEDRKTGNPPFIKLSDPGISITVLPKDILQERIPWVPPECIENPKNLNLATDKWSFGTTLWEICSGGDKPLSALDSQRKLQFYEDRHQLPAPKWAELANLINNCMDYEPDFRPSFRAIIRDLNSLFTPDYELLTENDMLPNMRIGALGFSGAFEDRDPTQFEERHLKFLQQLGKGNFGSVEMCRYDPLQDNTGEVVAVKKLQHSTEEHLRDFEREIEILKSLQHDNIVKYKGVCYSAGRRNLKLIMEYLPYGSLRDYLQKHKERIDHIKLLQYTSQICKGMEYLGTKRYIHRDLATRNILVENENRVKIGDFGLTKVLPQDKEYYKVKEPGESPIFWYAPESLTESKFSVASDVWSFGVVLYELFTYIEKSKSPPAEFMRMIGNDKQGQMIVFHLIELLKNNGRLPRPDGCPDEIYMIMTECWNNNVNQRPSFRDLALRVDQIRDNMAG

| SMILES | inhibition at 0.1 µM (JAK1) | inhibition at 1 µM (JAK1) | JAK1 % inhibition at 100 nM (JAK1; 100 nM) | JAK1 % inhibition at 1 μM (JAK1; 1 μM) | EC50 (A431 cancer cell line) | EC50 (Mda-Mb-231 cells) | IC50 (c-Src) | inhibition at 0.1 µM (JAK2) | inhibition at 1 µM (JAK2) | IC50 (pStat3) | IC50 (JAK2) | inhibition at 0.1 µM (c-Src) | inhibition at 1 µM (c-Src) |
| --- | --- | --- | --- | --- | --- | --- | --- | --- | --- | --- | --- | --- | --- |
| Cc1ccc(NC(=O)c2cccc(C(F)(F)F)c2)cc1N1CCc2nc(Nc3ccc(OCCN4CCCC4)cc3)ncc2C1 [Compound 9, N-(4-Methyl-3-{2-[4-(2-pyrrolidin-1-yl-ethoxy)-phenylamino]-7,8-dihydro-5H-pyrido[4,3-d]pyrimidin-6-yl}-phenyl)-3-trifluoromethyl-benzamide] | 58% | 85% |  |  |  |  |  |  |  |  |  |  |  |
| Cc1ccc(NC(=O)c2cccc(C(F)(F)F)c2)cc1N1CCc2nc(Nc3ccncc3)ncc2C1 [Compound 15, N-{4-Methyl-3-[2-(pyridin-4-ylamino)-7,8-dihydro-5H-pyrido[4,3-d]pyrimidin-6-yl]-phenyl}-3-trifluoromethyl-benzamide] | 49% | 73% |  |  |  |  |  |  |  |  |  |  |  |
| Cc1ccc(NC(=O)c2cccc(C(F)(F)F)c2)cc1N1CCc2nc(Nc3ccc4c(c3)CCC(=O)N4)ncc2C1 [Compound 18, N-{4-Methyl-3-[2-(2-oxo-1,2,3,4-tetrahydro-quinolin-6-ylamino)-7,8-dihydro-5H-pyrido[4,3-d]pyrimidin-6-yl]-phenyl}-3-trifluoromethyl-benzamide] | 82% | 89% |  |  |  |  |  |  |  |  |  |  |  |
| Cc1ccc(NC(=O)c2cccc(C(F)(F)F)c2)cc1N1CCc2nc(Nc3cccnc3)ncc2C1 [Compound 23, N-{4-Method-3-[2-(pyridin-3-ylamino)-7,8-dihydro-5H-pyrido[4,3-d]pyrimidin-6-yl]-phenyl}-3-trifluoromethyl-benzamide] | 84% | 88% |  |  |  |  |  |  |  |  |  |  |  |
| Cc1ccc(NC(=O)c2cccc(C(F)(F)F)c2)cc1N1CCc2nc(Nc3ccnc(Cl)c3)ncc2C1 [Compound 25, N-{3-[2-(2-Chloro-pyridin-4-ylamino)-7,8-dihydro-5H-pyrido[4,3-d]pyrimidin-6-yl]-4-methyl-phenyl}-3-trifluoromethyl-benzamide] | 58% | 96% |  |  |  |  |  |  |  |  |  |  |  |
| Cc1ccc(NC(=O)c2cccc(C(F)(F)F)c2)cc1N1CCc2nc(Nc3ccncc3)ncc2C1=O [Compound 26, N-{4-Methyl-3-[5-oxo-2-(pyridin-4-ylamino)-7,8-dihydro-5H-pyrido[4,3-d]pyrimidin-6-yl]-phenyl}-3-trifluoromethyl-benzamide] | 57% | 79% |  |  |  |  |  |  |  |  |  |  |  |
| Cc1ccc(C(=O)Nc2cccc(C(F)(F)F)c2)cc1N1CCc2nc(Nc3ccc(Cl)cc3)ncc2C1 [Compound 28] |  |  | 66% | 79% |  |  |  |  |  |  |  |  |  |
| Cc1ccc(NC(=O)c2cccc(C(F)(F)F)c2)cc1N1CCc2nc(Nc3ccc(C(=O)N4CCN(C)CC4)cc3)ncc2C1=O [Compound 75, N-(4-Methyl-3-{2-[4-(4-methyl-piperazine-1-carbonyl)-phenylamino]-5-oxo-7,8-dihydro-5H-pyrido[4,3-d]pyrimidin-6-yl}-phenyl)-3-trifluoromethylbenza-mide] |  |  |  |  | 1060 nM | 4670 nM | 19 nM | 83% | 97% |  |  |  |  |

The remaining lines, values ahead:

| inhibition at 0.1 µM (JAK1) | inhibition at 1 µM (JAK1) | JAK1 % inhibition at 100 nM (JAK1; 100 nM) | JAK1 % inhibition at 1 μM (JAK1; 1 μM) | EC50 (A431 cancer cell line) | EC50 (Mda-Mb-231 cells) | IC50 (c-Src) | inhibition at 0.1 µM (JAK2) | inhibition at 1 µM (JAK2) | IC50 (pStat3) | IC50 (JAK2) | inhibition at 0.1 µM (c-Src) | inhibition at 1 µM (c-Src) | SMILES |
| --- | --- | --- | --- | --- | --- | --- | --- | --- | --- | --- | --- | --- | --- |
|  |  |  |  | 135 nM | 2150 nM | 30 nM |  |  | 130 nM | 61 nM |  |  | Cc1ccc(NC(=O)c2cccc(C(F)(F)F)c2)cc1N1CCc2nc(Nc3ccc(CC(=O)N4CCN(C)CC4)cc3)ncc2C1=O [Compound 76, N-[4-Methyl-3-(2-{4-[2-(4-methyl-piperazin-1-yl)-2-oxo-ethyl]-phenylamino}-5-oxo-7,8-dihydro-5H-pyrido[4,3-d]pyrimidin-6-yl)-phenyl]-3-trifluoromethylbenza-mide] |
|  |  |  |  | 512 nM | 4920 nM | 17 nM | 80% | 96% | 510 nM |  |  |  | Cc1ccc(NC(=O)c2cccc(C(F)(F)F)c2)cc1N1CCc2nc(Nc3ccc(C(=O)NCCCN4CCCC4)cc3)ncc2C1=O [Compound 77, N-(4-methyl-3-(5-oxo-2-(4-(3-(pyrrolidin-1-yl)propylcarbamoyl)phenylamino)-7,8-dihydropyrido[4,3-d]pyrimidin-6(5H)-yl)phenyl)-3-(trifluoromethyl) benzamide] |
|  |  |  |  | 240 nM | 305 nM | 4 nM |  |  | 240 nM | 32 nM |  |  | CNC(=O)c1ccc(Nc2ncc3c(n2)CCN(c2cc(NC(=O)c4cccc(C(F)(F)F)c4)ccc2C)C3)cn1 [Compound 83, 5-{6-[2-Methyl-5-(3-trifluoromethyl-benzoylamino)-phenyl]-5,6,7,8-tetrahydro-pyrido[4,3-d]pyrimidin-2-ylamino}-pyridine-2-carboxylic acid methylamide] |
|  |  |  |  | 26 nM | 5 nM |  |  |  | 26 nM |  |  |  | Cc1ccc(NC(=O)c2cccc(C(F)(F)F)c2)cc1N1CCc2nc(Nc3ccc(C(=O)NC4CCN(C)CC4)cc3)ncc2C1 [Compound 92] |
|  |  |  |  | 180 nM | 50 nM | 2 nM |  |  | 160 nM | 19 nM |  |  | Cc1ccc(NC(=O)c2cccc(C(F)(F)F)c2)cc1N1CCc2nc(Nc3cncnc3)ncc2C1 [Compound 94, N-{4-Methyl-3-[2-(pyrimidin-5-ylamino)-7,8-dihydro-5H-pyrido[4,3-d]pyrimidin-6-yl]-phenyl}-3-trifluoromethyl-benzamide] |
|  |  |  |  | 61 nM | 50 nM | 1 nM |  |  | 60 nM | 7 nM |  |  | Cc1ccc(NC(=O)c2cccc(C(F)(F)F)c2)cc1N1CCc2nc(Nc3ccc(C(=O)NCCO)cc3)ncc2C1 [Compound 98] |
|  |  |  |  | 290 nM | 120 nM | 6 nM |  |  | 300 nM | 14 nM |  |  | Cc1ccc(NC(=O)c2cccc(C(F)(F)F)c2)cc1N1CCc2nc(Nc3ccc(C(=O)N4CCCC4)cc3)ncc2C1 [Compound 99, N-(4-Methyl-3-{2-[4-(pyrrolidine-1-carbonyl)-phenylamino]-7,8-dihydro-5H-pyrido[4,3-d]pyrimidin-6-yl}-phenyl)-3-trifluoromethyl-benzamide] |
|  |  |  |  | 220 nM | 310 nM | 2 nM | 85% | 98% | 220 nM | 18 nM | 99% | 100% | Cc1ccc(NC(=O)c2ccc(C(F)(F)F)s2)cc1N1CCc2nc(Nc3ccc(OCCN4CCCC4)cc3)ncc2C1 [Compound 106, 5-Trifluoromethyl-thiophene-2-carboxylic acid (4-methyl-3-{2-[4-(2-pyrrolidin-1-yl-ethoxy)-phenylamino]-7,8-dihydro-5H-pyrido[4,3-d]pyrimidin-6-yl}-phenyl)-amide] |
|  |  |  |  | 120 nM | 610 nM | 1 nM | 72% | 94% | 120 nM | 40 nM | 93% | 98% | Cc1ccc(NC(=O)N2CCCCC2)cc1N1CCc2nc(Nc3ccc(OCCN4CCCC4)cc3)ncc2C1 [Compound 107, Piperidine-1-carboxylic acid (4-methyl-3-{2-[4-(2-pyrrolidin-1-yl-ethoxy)-phenylamino]-7,8-dihydro-5H-pyrido[4,3-d]pyrimidin-6-yl}-phenyl)-amide] |
|  |  |  |  | 320 nM | 440 nM | 16 nM | 74% | 93% | 257 nM | 54 nM | 93% | 98% | Cc1ccc(NC(=O)c2cccc(C(F)(F)F)c2)cc1N1CCc2nc(Nc3ccc(S(=O)(=O)NC4CC4)cc3)ncc2C1 [Compound 165, N-{3-[2-(4-Cyclopropylsulfamoyl-phenylamino)-7,8-dihydro-5H-pyrido[4,3-d]pyrimidin-6-yl]-4-methyl-phenyl}-3-trifluoromethyl-benzamide] |
|  |  |  |  |  | 1750 nM | 17 nM | 91% | 92% | 150 nM | 7 nM | 77% | 90% | Cc1ccc(NC(=O)c2cccc(C(F)(F)F)c2)cc1N1CCc2nc(Nc3ccc(N4CCNCC4)cc3)ncc2C1=O [Compound 178, N-{4-Methyl-3-[5-oxo-2-(4-piperazin-1-yl-phenylamino)-7,8-dihydro-5H-pyrido[4,3-d]pyrimidin-6-yl]-phenyl}-3-trifluoromethyl-benzamide] |
